Data set [1] has as its system astrocytes. As to the kind of experiment: Intracellular glycogen quantification. It is filed as cell-based, mouse. To be noted: Prestwick hits; 10 uM, 3 h.
For data set [2], the system named is C57Bl/6 male and female mice. Description: In vivo chronic toxicity (28 days). On the procedure:
During this period, clinical symptoms and weight were recorded.
Chronic toxicity was assessed.

The subject of data set [3] is cerebral extracellular lactate. Description: In vivo pharmacodynamics: lactate biosensors in cortex. Also noted: species or system mouse. To be noted: 10 mg/kg per os. The procedure:
Extracellular levels of lactate were monitored in vivo using lactate biosensors (Pinnacle Technology), according to the manufacturer's instructions. Cannulae were surgically implanted in mice cerebral cerebral motor cortex areas M1/M2 (coordinates: +1.94 mm (to bregma), lateral −1.4 mm (to mideline), ventral −1.0 mm (to dura)) 5-7 days before administration of the compounds. Drugs were administered per os as previously described, and cerebral levels of extracellular lactate were dynamically recorded for 6 hours. Mice were administered vehicle alone first, followed 3 hours later by vehicle or drug (10 or 100 mg/kg). Area Under the Curve (AUC) quantifying the fluctuations of extracellular lactate concentrations for each of the compound tested was calculated using Graphad Prism and the ratio of AUC after drug over Vehicle administration was calculated. Groups of 8 male mice were used for each condition.
To measure biological effect of lead molecules in vivo in the brain, lactate levels were quantified after administration of the drug by using lactate biosensors implanted in the cortex of freely moving mice.

Data set [4] in a line: In vivo pharmacokinetics (PFC microdialysis and plasma). Also noted: species or system mouse. To be noted: after gavage with 100 mg/kg. The procedure: Mice were anesthetized using isoflurane (2% and 800 mL/min O2). Before surgery, Finadyne (1 mg/kg, s.c.) was administered for analgesia during surgery and the post-surgical recovery period. A mixture of bupivacaine and epinephrine was used for local anesthesia of the incision site of the periost of the skull.
The animals were placed in a stereotaxic frame (Kopf instruments, USA). MetaQuant microdialysis probes with a 3 mm exposed polyacrylonitrile membrane (MQ-PAN 3/3, Brainlink, the Netherlands) were implanted into the prefrontal cortex (coordinates for the tip of the probe: AP=+2.0 mm (to bregma), lateral=−0.7 mm (to midline), ventral=−3.3 mm (to dura), with the incisor bar set at 0.0 mm and an angle of 8°). All coordinates were based on “The mouse brain in stereotaxic coordinates” by Paxinos and Franklin (2004). The probes were attached to the skull with a stainless steel screw and dental cement (Fuji Plus Capsules, Henry Schein, the Netherlands).
In the same surgical procedure, a catheter was placed into the jugular vein to accommodate blood sampling. An indwelling cannula was inserted into the right jugular vein, and exteriorized through an incision on top of the skull. The end of the jugular vein catheter was fixed in position with dental acrylic cement and attached to the skull with two stainless steel screws.
Experiments were initiated one day after surgery. The MetaQuant microdialysis probes were connected with flexible PEEK tubing (Western Analytical Products Inc. USA; PK005-020) to a microperfusion pump (CMA Microdialysis) and perfused with aCSF+0.2% BSA at a flow rate of 0.12 μL/min. Ultrapurified water+0.2% BSA was used as the carrier flow at a flow rate of 0.80 μL/min. After a minimum of 1.5 hours of prestabilization, microdialysis samples were collected in 30 minute intervals. Samples were collected into polystyrene microvials (Microbiotech/se AB, Sweden; 4001029) using an automated fraction collector (UV 8301501, TSE, Univentor, Malta). After collection of three basal samples, at t=0 minutes, drug of interest was administered per os. Eight additional samples were collected after compound administration. All samples were stored at −80° C. until off-line analysis.
In parallel, blood samples (50 μL) were taken from the jugular vein through the cannula. These samples were collected at specified intervals into vials containing 5 μL heparin (500 IE/mL in saline). The samples were mixed by inverting the tubes and, subsequently, centrifuged at 4000 rpm (1500×g) for 10 min at 4° C. The supernatant was stored as plasma in 1.5 mL Eppendorf vials (Sarstedt, Germany) at −80° C. until off-line analysis.
At the end of the experiment, the animals were euthanized and terminal brain tissue was collected for visual histological verification of the probe positions.
PK was measured for GP-04, GP-05, GP-07, GP-R1 and GP-P1 in the PFC (prefrontal cortex) and plasma of wild type C56Bl/6 mice by CRO Brainsonline.

Data set [5] deals with C57Bl/6 mice. As to the kind of experiment: Grip strength test (GST). It is filed as in vivo, mouse. To be noted: 100 mg/kg per os, 1.5 hr. The procedure:
(§1) The depression mouse model features wild-type C57Bl/6 laboratory mice without any transgenic changes. To ensure that the actions of the tested molecules in the animal models of depression are not due to effects on locomotor activity or muscle strength in animals, molecules are administered to mice that are then tested in the grip strength test (GST) and in the open-field test (OFT) following the protocols described in Carrard et al. (Carrard, Elsayed, Margineanu, Boury-Jamot, Frangiere, Meylan, Petit, Fiuemlli, Magistretti and Martin. Peripheral administration of lactate produces antidepressant-like effects. Molecular Psychiatry, 2016 Oct. 18, e-pub). If alterations in muscle strength and/or locomotor activity are measured following administration drug, no further analyses are performed with this molecule.
GST is a test used to identify molecules that could modulate mouse grip strength, which might affect results in the FST. 1.5 hr after a single oral molecules administration, mice are placed on a grid dynamometer and the muscle strength (N) or their two front paws or all their four paws is measured in 3 consecutive sessions, and the best score is recorded.

The test system of data set [6] is C57Bl/6 mice. As to the kind of experiment: Forced swim test (FST). It is filed as in vivo, mouse. To be noted: 100 mg/kg per os, 1.5 hr. On the procedure:
as §1
FST is a test used to identify molecules that produce an acute antidepressant-like behavioral response.
1.5 hr after a single oral (vehicle or lactate-enhancing molecules) or intraperitoneal (vehicle, fluoxetine or despratmine) administration, mice are placed in a cylindrical container filled to a depth of 15 cm with water (23-25° C.). 6-min swim session are videotaped, and time spent immobile, which reflects the animal depressive-like behavior, is scored subsequently by an experimenter blind to the conditions used.

The test system of data set [7] is C57Bl/6 mice. Description: Open field test (OFT). It is filed as in vivo, mouse. The settings on record: 100 mg/kg per os, 1.5 hr. The procedure:
as §1
OFT is a test used to identify molecules that could modulate mouse activity, which might affect results in the FST. 1.5 hr after a single oral molecules administration, mice are placed in a 39 cm (long)×33 cm (large)×33 cm (high) open box and their activity is videotaped for 10 minutes. Mouse activity is then automatically scored using Ethovision pro video tracking system (Noldus).

The test system of data set [8] is astrocytes. Description: Extracellular lactate quantification. It is filed as cell-based, mouse. Also noted: Score_LACTATE / Score Lact.: scale not given here. To be noted: Appendix I; secondary screening, dosage of extracellular lactate. On the procedure:
Primary cultures of cerebrocortical astrocytes were obtained from 1-2-day-old OF1 mouse pups (Charles River Laboratories). Briefly, cortices were isolated and minced in small pieces under a dissecting microscope. The cells were incubated for 30 min at 37° C. in a solution containing 20 U/ml of papain enzyme (Worthington Biochemical), L-cysteine 1 mM (Sigma), and 10 kU/ml DNase I (Worthington Biochemical) for an enzymatic dissociation. Papain activity was stopped by the addition of fetal calf serum (FCS) to the solution, and a single-cell suspension was then obtained by mechanical dissociation, which consisted in cells trituration in a DMEM (D7777, Sigma-Aldrich) medium (supplemented with 44 mm NaHCO3, and 10 ml/L antibiotic/antimycotic solution) containing 10% FCS. The cells were seeded at an average density of 6×10^4 cells/cm^2 in poly-D-lysine-coated 96, 12 or 6-well culture plates, depending on their use, and incubated at 37° C. in a humidified atmosphere containing 5% CO2/95% air. Culture medium was renewed twice per week. Cells were stimulated and harvested between DIV14 and DIV17, when confluence and cell growth were optimal.
Secretion of L-lactate was determined in the extracellular medium of 96-well plated astrocytes after 90 min stimulation (at 37° C., in 5% CO2/95% air conditions) with the drug of interest. The stimulation medium was composed of D5030 medium (completed with D-glucose 5 mM and 44 mM sodium bicarbonate) for 90 min in concentrations ranging from 0 to 100 μM.
Briefly, 200 μl of a Glycine (Sigma)-Semicarbazide (Acros) 0.2M pH 10 buffer containing 3 mM NAD (Roche) and LDH 14 U/ml (Roche) was added to each well of a 96-well plate containing 30 μl aliquots complemented with 20 μl fresh complete D5030 medium. Samples were incubated at 37° C. for 1 h. After samples cooled down at room temperature, the fluorescence intensity (340 nm excitation/450 nm emission) that represents the amount of NADH produced was measured, and lactate concentration values were determined from a standard curve of L-lactate.
Statistical analysis consisted in ANOVA followed by Fisher LSD post-hoc test for pair-wise comparisons.
Levels of lactate secreted by astrocytes were measured in the extracellular medium at 90 min after stimulation with hits (molecules) from the CDC54K library.

The next data set deals with primary astrocytes. As to the kind of experiment: High throughput screening (HTS) for lactate secretion: acidification of extracellular medium (SNARF5). It is filed as cell-based, mouse. The settings on record: Appendix I; primary screening confirmation (SNARF5). On the procedure: Primary cultures of cerebrocortical astrocytes were obtained from 1-2-day-old OF1 mouse pups (Charles River Laboratories). Briefly, cortices were isolated and minced in small pieces under a dissecting microscope. The cells were incubated for 30 min at 37° C. in a solution containing 20 U/ml of papain enzyme (Worthington Biochemical), L-cysteine 1 mM (Sigma), and 10 kU/ml DNase I (Worthington Biochemical) for an enzymatic dissociation. […]
Secretion of lactate in a high-throughput screening (HTS) fashion was measured indirectly through the acidification of extracellular medium. […]
After 90 min stimulation, fluorescence was read at exc. […] The ratio of fluorescence between 630 nm and 580 emission values, which represents extracellular pH, was calculated.
In each plate, 8 wells were used for negative controls (DMSO) and 8 wells were used for positive controls (CCCP 2 uM in DMSO). Z prime values were calculated for each of the plates tested and values<0 were discarded.
The average and SD of compounds' values tested in duplicates were calculated, and compound was noted as HIT when the difference between compound's average and negative control's average was greater than three times the sum of compound's SD and negative controls' SD. […] Scores are calculated as the % of activity compared to the positive control in each plate (which is 100%). […]

Each structure is given as a SMILES string. Structures can show the parent of a compound that is named as a salt.

`COc1ccc(Cc2nccc3cc(OC)c(OC)cc23)cc1OC` [Papaverine hydrochloride]: the “Glycogen (statistical significance of glycogen degradation)” value in the data set on astrocytes [1] was “**** (****p<0.0001)”. Moreover, the “chronic toxicity (toxic or safe)” value in [2] (10 mg/kg per os once a day, 28 days) is reported as “safe”. For the same molecule, in data set [2] (chronic 10 mg/kg, liver, kidney), the pathological analysis entry is “minor treatment-related effects”. For the same molecule, in [3], the “cerebral lactate (AUC ratio vs vehicle)” value is given as “Significant increase”. Also, the “levels in the PFC” value in data set [4] was “at therapeutic range (100 nM to 1 uM) and sustained over several hours”. For the same molecule, the grip strength result in the data set on C57Bl/6 mice [5] is on record as “does not affect”. Moreover, the time spent immobile entry with C57Bl/6 mice [6] was “significant reduction”. For the same molecule, in the data set with C57Bl/6 mice [7], the “activity (open field)” value was “does not affect”.
The molecule `O=C(C[n+]1cc(-c2ccccc2)n2c1CCC2)c1ccc(Br)cc1.[Br-]` [T0502-5560] showed a Score_LACTATE with astrocytes [8] of 0.8524. The Score_SNARF with primary astrocytes came to 0.8504.

These data come from patent publication US12433892B2, “Compositions and methods of treatment for neurological disorders comprising depression” (Gliapharm SA, priority 2018, dated 2025).
